{"source": "BindingDB's records for patent US20250268873", "about": "(XRAD Therapeutics, 2025)", "key": {"[1]": {"target": "DNA-dependent protein kinase catalytic subunit (Homo sapiens, UniProt P78527)", "sequence (P78527 whole entry)": "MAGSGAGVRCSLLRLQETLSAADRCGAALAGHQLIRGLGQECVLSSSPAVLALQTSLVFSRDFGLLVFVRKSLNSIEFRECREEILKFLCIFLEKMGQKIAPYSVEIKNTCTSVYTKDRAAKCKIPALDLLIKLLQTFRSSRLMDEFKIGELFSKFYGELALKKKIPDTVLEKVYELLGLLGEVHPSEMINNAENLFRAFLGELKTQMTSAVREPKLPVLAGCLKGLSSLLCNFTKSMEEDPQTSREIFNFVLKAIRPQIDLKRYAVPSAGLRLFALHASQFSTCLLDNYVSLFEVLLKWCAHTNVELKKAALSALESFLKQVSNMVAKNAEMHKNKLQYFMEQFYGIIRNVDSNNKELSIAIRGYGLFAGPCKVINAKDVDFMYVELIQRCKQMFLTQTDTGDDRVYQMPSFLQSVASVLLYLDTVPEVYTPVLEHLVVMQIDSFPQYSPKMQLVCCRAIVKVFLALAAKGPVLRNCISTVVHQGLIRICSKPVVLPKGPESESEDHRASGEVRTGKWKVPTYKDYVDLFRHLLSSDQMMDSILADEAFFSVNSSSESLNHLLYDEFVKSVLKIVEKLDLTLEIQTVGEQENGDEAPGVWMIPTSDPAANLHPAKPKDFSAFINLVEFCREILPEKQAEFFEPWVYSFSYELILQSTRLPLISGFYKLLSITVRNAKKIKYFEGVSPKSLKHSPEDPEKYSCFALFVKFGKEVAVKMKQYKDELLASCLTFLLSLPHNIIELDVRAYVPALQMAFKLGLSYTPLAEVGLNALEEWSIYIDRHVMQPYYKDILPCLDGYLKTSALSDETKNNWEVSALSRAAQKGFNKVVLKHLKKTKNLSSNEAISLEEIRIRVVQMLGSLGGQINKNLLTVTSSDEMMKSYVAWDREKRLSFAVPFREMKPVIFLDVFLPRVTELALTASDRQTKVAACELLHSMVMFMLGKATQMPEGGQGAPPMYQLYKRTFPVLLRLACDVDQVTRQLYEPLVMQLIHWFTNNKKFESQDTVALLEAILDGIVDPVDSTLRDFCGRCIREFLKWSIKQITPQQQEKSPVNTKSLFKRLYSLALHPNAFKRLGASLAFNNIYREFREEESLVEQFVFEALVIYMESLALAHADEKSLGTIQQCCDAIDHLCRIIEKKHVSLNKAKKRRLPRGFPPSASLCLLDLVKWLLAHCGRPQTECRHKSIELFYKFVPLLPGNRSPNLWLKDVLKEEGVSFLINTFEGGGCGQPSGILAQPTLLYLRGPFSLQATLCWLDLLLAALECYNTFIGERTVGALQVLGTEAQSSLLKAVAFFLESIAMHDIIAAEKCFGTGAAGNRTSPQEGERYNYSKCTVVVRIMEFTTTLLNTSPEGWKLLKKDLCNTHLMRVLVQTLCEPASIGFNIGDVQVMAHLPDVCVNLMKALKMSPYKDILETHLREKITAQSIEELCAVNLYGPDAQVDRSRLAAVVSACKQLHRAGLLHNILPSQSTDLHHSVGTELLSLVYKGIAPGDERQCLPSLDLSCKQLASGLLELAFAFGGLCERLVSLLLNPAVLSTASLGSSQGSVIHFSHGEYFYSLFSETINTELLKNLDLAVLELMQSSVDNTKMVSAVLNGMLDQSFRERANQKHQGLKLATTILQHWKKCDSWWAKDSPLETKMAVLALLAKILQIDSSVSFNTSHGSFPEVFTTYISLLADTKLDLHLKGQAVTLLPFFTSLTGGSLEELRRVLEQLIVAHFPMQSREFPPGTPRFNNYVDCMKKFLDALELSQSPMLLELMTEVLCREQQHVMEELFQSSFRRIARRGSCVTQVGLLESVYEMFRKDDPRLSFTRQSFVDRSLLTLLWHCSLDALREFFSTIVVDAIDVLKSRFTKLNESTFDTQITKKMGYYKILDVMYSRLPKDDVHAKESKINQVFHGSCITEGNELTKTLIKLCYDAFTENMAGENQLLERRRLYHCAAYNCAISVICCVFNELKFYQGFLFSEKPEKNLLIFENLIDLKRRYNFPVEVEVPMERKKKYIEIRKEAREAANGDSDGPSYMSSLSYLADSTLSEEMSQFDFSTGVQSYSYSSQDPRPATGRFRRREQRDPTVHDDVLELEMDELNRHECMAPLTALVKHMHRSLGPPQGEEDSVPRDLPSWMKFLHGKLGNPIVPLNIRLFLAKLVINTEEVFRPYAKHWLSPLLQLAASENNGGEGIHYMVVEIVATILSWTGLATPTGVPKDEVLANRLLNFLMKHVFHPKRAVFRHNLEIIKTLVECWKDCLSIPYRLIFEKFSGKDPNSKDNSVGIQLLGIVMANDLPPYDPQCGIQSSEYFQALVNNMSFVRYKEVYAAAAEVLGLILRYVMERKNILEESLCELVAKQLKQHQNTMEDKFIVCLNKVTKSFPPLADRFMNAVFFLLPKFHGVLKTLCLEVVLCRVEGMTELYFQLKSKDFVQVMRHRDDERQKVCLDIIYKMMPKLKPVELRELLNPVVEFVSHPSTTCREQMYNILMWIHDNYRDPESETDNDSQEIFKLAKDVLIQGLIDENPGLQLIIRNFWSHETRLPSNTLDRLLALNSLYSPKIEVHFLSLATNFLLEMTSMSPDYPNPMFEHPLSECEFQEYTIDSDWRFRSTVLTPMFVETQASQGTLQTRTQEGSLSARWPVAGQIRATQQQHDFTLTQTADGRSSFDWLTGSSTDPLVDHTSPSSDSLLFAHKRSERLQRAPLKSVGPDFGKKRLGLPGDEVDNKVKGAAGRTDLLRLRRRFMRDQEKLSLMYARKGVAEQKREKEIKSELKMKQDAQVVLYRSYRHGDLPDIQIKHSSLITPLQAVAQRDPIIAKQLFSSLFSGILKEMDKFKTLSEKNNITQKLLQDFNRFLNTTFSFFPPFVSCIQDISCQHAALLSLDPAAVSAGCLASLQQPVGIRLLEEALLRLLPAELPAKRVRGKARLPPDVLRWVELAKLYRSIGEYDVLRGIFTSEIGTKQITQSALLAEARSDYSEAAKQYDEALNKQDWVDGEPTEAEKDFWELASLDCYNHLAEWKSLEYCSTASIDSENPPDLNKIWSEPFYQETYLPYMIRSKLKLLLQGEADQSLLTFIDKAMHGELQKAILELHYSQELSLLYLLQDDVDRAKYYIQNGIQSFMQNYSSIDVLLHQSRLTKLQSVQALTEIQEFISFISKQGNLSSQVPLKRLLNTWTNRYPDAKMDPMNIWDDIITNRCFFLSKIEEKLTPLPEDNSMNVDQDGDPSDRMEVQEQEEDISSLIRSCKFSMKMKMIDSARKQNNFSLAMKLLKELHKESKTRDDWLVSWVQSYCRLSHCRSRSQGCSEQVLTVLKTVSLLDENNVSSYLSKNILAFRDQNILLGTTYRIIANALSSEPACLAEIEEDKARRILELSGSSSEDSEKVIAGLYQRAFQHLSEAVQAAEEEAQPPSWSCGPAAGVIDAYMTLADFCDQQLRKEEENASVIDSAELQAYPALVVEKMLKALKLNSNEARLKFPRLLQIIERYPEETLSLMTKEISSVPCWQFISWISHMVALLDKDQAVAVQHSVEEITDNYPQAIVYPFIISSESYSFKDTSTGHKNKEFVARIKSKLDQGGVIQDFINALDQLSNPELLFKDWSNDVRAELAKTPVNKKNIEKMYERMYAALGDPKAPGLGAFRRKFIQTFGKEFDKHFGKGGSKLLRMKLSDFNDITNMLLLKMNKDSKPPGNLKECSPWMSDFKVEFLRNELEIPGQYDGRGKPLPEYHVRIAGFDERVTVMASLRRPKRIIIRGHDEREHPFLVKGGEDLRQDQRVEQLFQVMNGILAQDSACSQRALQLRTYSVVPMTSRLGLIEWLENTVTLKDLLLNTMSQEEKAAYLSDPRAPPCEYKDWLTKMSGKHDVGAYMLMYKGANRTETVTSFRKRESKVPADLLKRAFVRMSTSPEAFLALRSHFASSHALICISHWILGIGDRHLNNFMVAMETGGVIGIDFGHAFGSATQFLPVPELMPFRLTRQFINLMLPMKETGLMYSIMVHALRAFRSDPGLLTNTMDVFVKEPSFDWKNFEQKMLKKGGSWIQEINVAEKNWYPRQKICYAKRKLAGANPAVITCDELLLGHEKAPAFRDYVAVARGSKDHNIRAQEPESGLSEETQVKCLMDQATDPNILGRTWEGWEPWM", "assay": "DNA-PK Enzyme-Linked Immunosorbent Assay", "experimental": "On day one, a 96-well plate (ThermoFisher, Cat #: 442404) was coated with GST-p53 (1-101) peptide (purified by Pharmaron, BCS department) by diluting 3 μg of GST-p53 in each well with 0.1 M Na2CO3/NaHCO3 (pH 9.6). The plate was incubated overnight at 4° C. On the second day, the coating buffer was removed, and the plate was washed twice with PBST (1×PBS containing 0.1% Tween-20). The DNA-PK enzyme solution (Invitrogen, #PR9107A; the final DNA-PK concentration: 0.1 μg/mL) was then added. The compounds were serially diluted to the final maximal concentration of 100 nM (3 fold series dilution, a total of 10 doses), and an ATP solution (the final ATP concentration: 20 μM) was added to the plate. Incubate the plate at 25° C. for 1 hour. The plate was washed three times with PBST (1×PBS containing 0.1% Tween-20) and blocked with a solution of PBST and 1% BSA at 4° C. overnight. The third day, the plate was washed four times with PBST (1×PBS containing 0.1% Tween-20). Anti-phospho-p53 primary antibody (cell signaling Technology, #9286, Phospho-p53 (Ser15) (16G8) Mouse mAb) (1/1000) was added to each well. The plate was sealed, incubated 1 h at 37° C., and washed four times with PBST (1×PBS containing 0.1% Tween-20). An HRP-linked secondary antibody (Cell signaling Technology, #7076, Anti-mouse IgG, HRP-linked Antibody) (1/1000) (100 μL) was added to each well. […]"}, "[2]": {"target": "Phosphatidylinositol 4,5-bisphosphate 3-kinase catalytic subunit alpha isoform (Homo sapiens, UniProt P42336)", "sequence (P42336 whole entry, canonical isoform)": "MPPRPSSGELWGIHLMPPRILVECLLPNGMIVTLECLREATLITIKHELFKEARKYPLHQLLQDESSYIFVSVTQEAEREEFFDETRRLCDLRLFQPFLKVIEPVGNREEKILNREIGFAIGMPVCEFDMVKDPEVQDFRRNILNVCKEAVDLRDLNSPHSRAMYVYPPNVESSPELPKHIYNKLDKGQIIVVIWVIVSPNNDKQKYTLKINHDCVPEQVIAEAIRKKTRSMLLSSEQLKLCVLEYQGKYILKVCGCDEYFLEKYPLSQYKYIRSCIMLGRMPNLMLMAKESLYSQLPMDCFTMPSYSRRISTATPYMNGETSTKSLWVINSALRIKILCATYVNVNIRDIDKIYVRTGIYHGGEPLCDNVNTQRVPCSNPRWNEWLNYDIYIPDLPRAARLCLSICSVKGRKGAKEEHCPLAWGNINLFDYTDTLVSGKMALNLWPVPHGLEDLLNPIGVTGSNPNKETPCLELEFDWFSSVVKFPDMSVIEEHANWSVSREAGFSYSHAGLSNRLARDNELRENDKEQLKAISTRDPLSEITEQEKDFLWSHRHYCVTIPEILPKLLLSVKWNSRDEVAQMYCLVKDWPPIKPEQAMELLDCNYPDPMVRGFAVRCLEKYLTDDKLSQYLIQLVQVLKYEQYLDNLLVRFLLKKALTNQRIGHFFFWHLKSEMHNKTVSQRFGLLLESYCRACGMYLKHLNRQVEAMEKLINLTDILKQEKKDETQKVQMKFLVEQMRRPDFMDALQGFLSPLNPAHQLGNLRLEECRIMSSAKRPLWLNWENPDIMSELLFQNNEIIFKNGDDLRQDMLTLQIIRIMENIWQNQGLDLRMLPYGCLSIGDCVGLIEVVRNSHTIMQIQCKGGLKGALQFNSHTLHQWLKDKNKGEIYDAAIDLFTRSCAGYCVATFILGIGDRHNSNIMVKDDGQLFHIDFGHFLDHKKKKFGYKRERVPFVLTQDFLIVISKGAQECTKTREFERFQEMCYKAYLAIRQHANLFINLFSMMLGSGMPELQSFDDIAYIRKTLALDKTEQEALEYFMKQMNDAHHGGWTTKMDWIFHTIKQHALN", "assay": "PI3Kα and PI3Kδ Biochemical Assay", "experimental": "(§1) PI3Kα and PI3Kδ Kinase reactions were performed in a 5 μL volume in low-volume 384-well plates. Typically, PerkinElmer model 6008280 plates were used. The 1× kinase reaction buffer consisted of 50 mM HEPES pH 7.5, 3 mM MgCl2, 0.03% CHAPS, 1 mM EGTA, 100 mM NaCl, and 2 mM DTT. PI3Kα (ThermoFisher, #PV4788; the final PI3Kα concentration: 120 ng/mL) or PI3Kδ enzyme solution (ThermoFisher, #PV6451; the final PI3Kδ concentration: 250 ng/mL) was added to the plate, compounds were serially diluted to the final maximal concentration of 100 nM (3 fold series dilution, a total of 10 doses), and the PIP2:3PS (the final concentration: 10 μg/mL) and ATP solution (the final ATP concentration: 10 μM) was added to the 384-well plate. The plate was incubated at 25° C. for 1 hour. ADP-Glo reagent buffer (5 μL) was added to each well. The plate was sealed and incubated for 40 min at 25° C. ADP-Glo detection buffer (10 μL) was added to each well, and the plate was incubated for 40 min at 25° C. and read on a plate reader configured for Luminescence."}, "[3]": {"target": "T1, Phosphatidylinositol 4,5-bisphosphate 3-kinase catalytic subunit delta isoform (Homo sapiens, UniProt O00329)", "T1 sequence (O00329 whole entry)": "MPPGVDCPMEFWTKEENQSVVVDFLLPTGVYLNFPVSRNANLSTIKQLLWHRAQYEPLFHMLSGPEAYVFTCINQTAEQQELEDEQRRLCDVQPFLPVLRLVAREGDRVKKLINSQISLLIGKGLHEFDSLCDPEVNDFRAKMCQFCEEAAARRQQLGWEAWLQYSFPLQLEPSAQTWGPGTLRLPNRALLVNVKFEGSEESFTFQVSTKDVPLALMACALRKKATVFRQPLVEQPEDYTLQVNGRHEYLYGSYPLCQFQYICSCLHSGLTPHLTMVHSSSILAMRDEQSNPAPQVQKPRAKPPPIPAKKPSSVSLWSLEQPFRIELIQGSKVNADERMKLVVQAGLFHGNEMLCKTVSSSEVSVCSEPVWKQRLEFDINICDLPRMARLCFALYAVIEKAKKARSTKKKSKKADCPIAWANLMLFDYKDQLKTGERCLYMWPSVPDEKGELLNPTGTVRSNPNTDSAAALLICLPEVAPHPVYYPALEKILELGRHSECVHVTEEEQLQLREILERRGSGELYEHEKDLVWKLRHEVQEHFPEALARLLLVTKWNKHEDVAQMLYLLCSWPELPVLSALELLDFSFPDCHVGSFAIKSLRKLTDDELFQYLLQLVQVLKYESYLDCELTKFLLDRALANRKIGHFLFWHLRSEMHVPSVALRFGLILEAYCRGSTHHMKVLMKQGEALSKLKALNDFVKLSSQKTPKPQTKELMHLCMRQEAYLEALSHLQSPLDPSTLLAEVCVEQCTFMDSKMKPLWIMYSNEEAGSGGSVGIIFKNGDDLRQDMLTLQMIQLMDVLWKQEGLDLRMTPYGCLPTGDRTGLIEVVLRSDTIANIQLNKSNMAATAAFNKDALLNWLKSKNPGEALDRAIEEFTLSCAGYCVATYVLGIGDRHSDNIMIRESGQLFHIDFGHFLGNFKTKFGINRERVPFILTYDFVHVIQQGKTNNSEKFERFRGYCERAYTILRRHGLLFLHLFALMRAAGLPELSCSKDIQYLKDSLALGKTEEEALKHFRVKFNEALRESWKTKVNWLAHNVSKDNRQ", "assay": "PI3Kα and PI3Kδ Biochemical Assay", "experimental": "as §1"}}}
{"smiles": "CC(C)NCCOC1=NCC(C2=CC3C4=C(C=NC3CC2F)N(C)C(=O)C42CCC2)C=C1NS(=O)(=O)C(C)C", "note": "(stereo unspecified) [US20250268873, Compound 568]", "values": [{"measurement": "IC50", "setting": "[1]", "value": 0.00079, "unit": "µM"}, {"measurement": "IC50", "setting": "[2]", "value": 0.018, "unit": "µM"}, {"measurement": "IC50", "setting": "[3]", "value": 0.054, "unit": "µM"}]}
{"smiles": "CCS(=O)(=O)NC1=CC(C2=CC3C4=C(C=NC3CC2F)N(C)C(=O)C42CCC2)CN=C1OCCNC(C)C", "note": "(stereo unspecified) [US20250268873, Compound 570]", "values": [{"measurement": "IC50", "setting": "[1]", "value": 0.00063, "unit": "µM"}, {"measurement": "IC50", "setting": "[2]", "value": 0.021, "unit": "µM"}, {"measurement": "IC50", "setting": "[3]", "value": 0.055, "unit": "µM"}]}
